The text below walks through data of publication PMC9118204, “Novel Dihydropyrimidinone Derivatives as Potential P-Glycoprotein Modulators” (ACS Omega, 2022).

Series [1] has as its system colorectal adenocarcinoma (Caco-2) cell line. Kind of series: MTT cytotoxicity assay against Caco-2 cells. In kind it is cell-based. The following applies: for cytotoxic activity in words: halogen in the N-phenyl substituent. How it is done:
The colorectal adenocarcinoma Caco-2 cell line was generously provided by the Zydus Research Centre, Ahmedabad, Gujarat, India. These cells were maintained in DMEM (Hi-Media) containing 25 mM HEPES buffer, 1000 mg/L glucose, L-glutamine, sodium bicarbonate, and sodium pyruvate and supplemented with 20% heat-inactivated FBS (cell clone), 1% (v/v) minimal essential medium nonessential amino acids (Hi-Media), antibiotic, and antimycotic (penicillin, streptomycin, and amphotericin B; Hi-Media) in a humidified atmosphere of 5% CO2 at 37 °C. […] Caco-2 VB cells, which overexpress hPGP, were generated by growing Caco-2 cells in the presence of 1 μg/mL vinblastine. The drug was removed from the culture medium 2–3 days prior to using the Caco-2 VB cells in the biological assays.
Caco-2 cells were cultured in 96-well plates until they reached 70–80% confluency and then treated with the TRZ-DHPM derivatives (0.1–100 μM). Cytotoxicity was determined using an MTT (3-(4,5-dimethylthiazol-2-yl)-2,5-diphenyltetrazolium bromide) assay as described previously.[31]
For orientation: Tetrazolium assays rely on reduction of a dye to a coloured formazan, in cell work by metabolically active cells.

Series [2] deals with T1, human P-glycoprotein (hPgp) (Homo sapiens, UniProt P08183).
T1 construct: Caco-2 VB cells, which overexpress hPGP, were generated by growing Caco-2 cells in the presence of 1 μg/mL vinblastine; endogenous in cells; host or cells: Caco-2 VB (vinblastine-resistant human colorectal adenocarcinoma Caco-2 cells)
T1 sequence (P08183 whole entry): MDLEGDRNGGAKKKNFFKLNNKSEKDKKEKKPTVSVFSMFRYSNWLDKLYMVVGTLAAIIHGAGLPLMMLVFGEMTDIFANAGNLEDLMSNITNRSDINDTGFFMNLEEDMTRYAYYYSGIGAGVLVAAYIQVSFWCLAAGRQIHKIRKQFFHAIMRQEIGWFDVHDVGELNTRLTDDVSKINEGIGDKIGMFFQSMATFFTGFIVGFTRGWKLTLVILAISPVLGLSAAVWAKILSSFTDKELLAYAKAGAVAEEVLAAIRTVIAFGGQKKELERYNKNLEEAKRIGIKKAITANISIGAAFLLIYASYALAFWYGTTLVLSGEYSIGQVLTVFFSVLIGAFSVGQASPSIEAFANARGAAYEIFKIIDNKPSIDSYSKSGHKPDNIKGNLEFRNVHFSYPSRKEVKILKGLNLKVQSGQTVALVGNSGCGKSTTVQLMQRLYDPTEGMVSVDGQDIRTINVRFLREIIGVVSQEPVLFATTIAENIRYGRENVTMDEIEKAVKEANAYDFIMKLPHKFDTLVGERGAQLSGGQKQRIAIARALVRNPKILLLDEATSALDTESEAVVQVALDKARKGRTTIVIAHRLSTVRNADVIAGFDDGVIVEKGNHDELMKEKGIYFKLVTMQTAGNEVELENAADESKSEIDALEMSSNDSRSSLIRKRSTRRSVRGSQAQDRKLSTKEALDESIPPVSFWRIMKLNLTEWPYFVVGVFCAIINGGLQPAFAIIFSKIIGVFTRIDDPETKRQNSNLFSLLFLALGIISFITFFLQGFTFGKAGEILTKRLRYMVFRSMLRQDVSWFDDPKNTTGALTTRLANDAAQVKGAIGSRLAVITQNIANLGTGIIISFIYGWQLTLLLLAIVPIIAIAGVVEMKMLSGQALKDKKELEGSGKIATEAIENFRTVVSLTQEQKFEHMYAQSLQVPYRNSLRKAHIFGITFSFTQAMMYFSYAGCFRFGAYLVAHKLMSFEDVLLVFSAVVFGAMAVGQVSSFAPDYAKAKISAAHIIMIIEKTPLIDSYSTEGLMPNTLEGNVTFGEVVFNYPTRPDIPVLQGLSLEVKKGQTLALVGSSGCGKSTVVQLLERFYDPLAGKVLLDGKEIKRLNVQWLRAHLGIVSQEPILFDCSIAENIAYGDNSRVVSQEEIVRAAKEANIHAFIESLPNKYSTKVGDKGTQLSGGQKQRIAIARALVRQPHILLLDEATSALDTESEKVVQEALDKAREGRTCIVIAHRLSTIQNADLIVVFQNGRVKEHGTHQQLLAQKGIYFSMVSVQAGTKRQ
Kind of series: hPgp-mediated calcein-AM efflux assay in Caco-2 VB cells. Type of series: cell-based. As to conditions: for EC50: Caco-2 VB cells, calcein-AM, read-out: inhibition of calcein extrusion, EC50. Here is the method: (§1) In this assay, hydrolysis of intracellular calcein-AM to calcein by endogenous cellular esterases causes the cell to become highly fluorescent (see Figure S1 in Supporting Information).
The colorectal adenocarcinoma Caco-2 cell line was generously provided by the Zydus Research Centre, Ahmedabad, Gujarat, India. […] Caco-2 VB cells, which overexpress hPGP, were generated by growing Caco-2 cells in the presence of 1 μg/mL vinblastine. The drug was removed from the culture medium 2–3 days prior to using the Caco-2 VB cells in the biological assays.
Each well contained 100 μL of cells in culture medium, 50 μL of a solution containing the TRZ-DPHM derivative, and 50 μL of calcein-AM (total volume, 200 μL). The final concentration of putative hPGP inhibitor in each assay ranged from 0.01 to 30 μg/mL. […] Caco-2 cells were used as a negative control (Figure S1). […] PBS was used for all dilutions. All experiments were performed in triplicate.
The effectiveness of inhibitors on Pgp efflux activity, i.e., calcein retention was calculated by the following equation [drawing 1] where FT is the fluorescence of treated cells and FU is the fluorescence of untreated cells.

The target of another series is T2, hPgp (Homo sapiens, UniProt P08183).
T2 construct: Caco-2 VB cells, which overexpress hPGP, were generated by growing Caco-2 cells in the presence of 1 μg/mL vinblastine; endogenous in cells; host or cells: Caco-2 VB (vinblastine-resistant human colorectal adenocarcinoma Caco-2 cells)
T2 sequence (P08183 whole entry): as above
Kind of series: Fluorescence microscopy imaging of intracellular calcein in Caco-2 VB cells. In kind it is cell-based. As to conditions: for intracellular calcein retention by fluorescence microscopy: Caco-2-VB cells, 1 μM calcein-AM, 30 min, concentration = EC50.
Source text: as §1
Full details are provided in the Supporting Information.

The mark [3] stands for this setting: Homo sapiens, Caco-2 cell line (Table S3).
The mark [4] stands for this setting: Homo sapiens, Caco-2 cell line, MTT assay (Table 1).

By IC50 is commonly meant the concentration needed to halve the response being measured. Read a high IC50 as weaker potency. What is called EC50 is the concentration needed to bring the measured effect to its halfway point. The melting point is the temperature of the solid-liquid transition. On to `CC(=O)C1=C(C)NC(=O)NC1c1ccccc1OCc1cn(-c2ccccc2)nn1` (stereo not drawn) [6aa′, 5-Acetyl-6-methyl-4-(2-((1-phenyl-1H-1,2,3-triazol-4-yl)methoxy)phenyl)-3,4-dihydropyrimidin-2(1H)-one], for which the melting point was 145 to 147 °C. The molecule further gave an IC50 in series [1] (setting [3]) of 1000 ± 300 nM. For the same molecule, the half-maximal inhibitory concentration (IC50) in series [1] (setting [4]) was 1100 ± 200 nM. In addition, in series [2], the EC50 was 12560 ± 80 nM.
In turn, `CC(=O)C1=C(C)NC(=O)NC1c1ccccc1OCc1cn(-c2ccccc2[N+](=O)[O-])nn1` (stereo not drawn) [6ab′, 5-Acetyl-6-methyl-4-(2-((1-(2-nitrophenyl)-1H-1,2,3-triazol-4-yl)methoxy)phenyl)-3,4-dihydropyrimidin-2(1H)-one] showed a melting point of 133 to 135 °C. Further, in series [1] (setting [4]), the IC50 was 1300 ± 800 nM. For the same molecule, in series [2], the half-maximal effective concentration (EC50) was 15420 ± 60 nM. For the same molecule, in series [2] (relative to 6ad′, calcein-AM assay), the “decrease in potency on replacing chlorine by nitro group” value is 5 fold.
Consider `CC(=O)C1=C(C)NC(=O)NC1c1ccccc1OCc1cn(-c2ccc([N+](=O)[O-])cc2)nn1` (stereo not drawn) [6ac′, 5-Acetyl-6-methyl-4-(2-((1-(4-nitrophenyl)-1H-1,2,3-triazol-4-yl)methoxy)phenyl)-3,4-dihydropyrimidin-2(1H)-one], for which the melting point lay in the range of 148 to 150 °C. Further, inhibition in series [1] (setting [3]) was half-maximal at 2000 ± 530 nM (IC50).
Consider `CC(=O)C1=C(C)NC(=O)NC1c1ccccc1OCc1cn(-c2cccc(Cl)c2)nn1` (stereo not drawn) [6ad′, 5-Acetyl-4-(2-((1-(3-chlorophenyl)-1H-1,2,3-triazol-4-yl)methoxy)phenyl)-6-methyl-3,4-dihydropyrimi-din-2(1H)-one], for which the melting point was in the range of 130 to 132 °C. Moreover, the “cytotoxic activity in words” value in series [1] (Caco-2 cell line) was “sub-micromolar”. In series [1] (setting [4]), this molecule showed an IC50 of 570 ± 30 nM. Further, in series [2], the EC50 was 3140 ± 30 nM. For the same molecule, on hPgp, the “intracellular calcein retention by fluorescence microscopy” value is reported as “confirmed intracellular calcein retention”. Further, on hPgp (calcein retention, p < 0.0001), the “modulation of hPgp function compared with cyclosporin A or verapamil (statistical analysis)” value is listed as “better modulator of hPgp function”.
As to `CC(=O)C1=C(C)NC(=O)NC1c1ccccc1OCc1cn(-c2cccc(Br)c2)nn1` (stereo not drawn) [6ae′], the IC50 in series [1] (Caco-2 cell line (Table S3)) came out at 2000 ± 1200 nM.
`CC(=O)C1=C(C)NC(=O)NC1c1ccccc1OCc1cn(-c2c(Cl)cc(Cl)cc2Cl)nn1` (stereo not drawn) [6af′, 5-Acetyl-6-methyl-4-(2-((1-(2,4,6-trichlorophenyl)-1H-1,2,3-triazol-4-yl)methoxy)phenyl)-3,4-dihydro-pyrimidin-2(1H)-one] gave a melting point of 139 to 141 °C. In addition, 3700 ± 300 nM corresponded to half-maximal inhibition in series [1] (setting [3]) (IC50).
Taken in the same sequence, the figures for `CC(=O)C1=C(C)NC(=O)NC1c1ccc(OCc2cn(-c3ccccc3)nn2)cc1` (stereo not drawn) [6ba′, 5-Acetyl-6-methyl-4-(4-((1-phenyl-1H-1,2,3-triazol-4-yl)methoxy)phenyl)-3,4-dihydropyrimidin-2(1H)-one] were 133 to 135 °C and 2200 ± 200 nM.
`CC(=O)C1=C(C)NC(=O)NC1c1ccc(OCc2cn(-c3ccccc3[N+](=O)[O-])nn2)cc1` (stereo not drawn) [6bb′, 5-Acetyl-6-methyl-4-(4-((1-(2-nitrophenyl)-1H-1,2,3-triazol-4-yl)methoxy)phenyl)-3,4-dihydropyrimidin-2(1H)-one] registered a melting point of 157 to 159 °C. This molecule also gave an IC50 in series [1] (setting [3]) of 1600 ± 100 nM.
In turn, `CC(=O)C1=C(C)NC(=O)NC1c1ccc(OCc2cn(-c3ccc([N+](=O)[O-])cc3)nn2)cc1` (stereo not drawn) [6bc′, 5-Acetyl-6-methyl-4-(4-((1-(4-nitrophenyl)-1H-1,2,3-triazol-4-yl)methoxy)phenyl)-3,4-dihydropyrimidin-2(1H)-one] displayed a melting point of 134 to 136 °C. The molecule further returned an IC50 in series [1] (setting [3]) of 2440 ± 40 nM.
`CC(=O)C1=C(C)NC(=O)NC1c1ccc(OCc2cn(-c3cccc(Cl)c3)nn2)cc1` (stereo not drawn) [6bd′, 5-Acetyl-4-(4-((1-(3-chlorophenyl)-1H-1,2,3-triazol-4-yl)methoxy)phenyl)-6-methyl-3,4-dihydropyrimidin-2(1H)-one]: the melting point was 142 to 144 °C. Also, the “cytotoxic activity in words” value in series [1] (Caco-2 cell line) is “sub-micromolar”. This molecule came in with a concentration for half-maximal inhibition (IC50) in series [1] (setting [4]) of 760 ± 60 nM. Also, the EC50 in series [2] is 4800 ± 200 nM.
In the same order, the values of `CC(=O)C1=C(C)NC(=O)NC1c1ccc(OCc2cn(-c3cccc(Br)c3)nn2)cc1` (stereo not drawn) [6be′, 5-Acetyl-4-(4-((1-(3-bromophenyl)-1H-1,2,3-triazol-4-yl)methoxy)phenyl)-6-methyl-3,4-dihydropyrimidin-2(1H)-one] are 138 to 140 °C, “sub-micromolar”, 800 ± 100 nM and 9250 ± 20 nM.
Molecule `CC(=O)C1=C(C)NC(=O)NC1c1ccc(OCc2cn(-c3c(Cl)cc(Cl)cc3Cl)nn2)cc1` (stereo not drawn) [6bf′, 5-Acetyl-6-methyl-4-(4-((1-(2,4,6-trichlorophenyl)-1H-1,2,3-triazol-4-yl)methoxy)phenyl)-3,4-dihydro-pyrimidin-2(1H)-one] displayed a melting point of 135 to 137 °C. The IC50 in series [1] (setting [3]) came to 1500 ± 70 nM.
The molecule `COc1ccc(-n2cc(COc3ccc(C4NC(=O)NC(C)=C4C(C)=O)cc3)nn2)c(OC)c1` (stereo not drawn) [6bh′, 5-Acetyl-4-(4-((1-(2,4-dimethoxyphenyl)-1H-1,2,3-triazol-4-yl)methoxy)phenyl)-6-methyl-3,4-dihydro-pyrimidin-2(1H)-one] came in with a melting point of 140 to 142 °C. This molecule also gave an IC50 in series [1] (setting [4]) of 600 ± 200 nM. The EC50 in series [2] is 4200 ± 200 nM.
For the molecule `CC(=O)C1=C(C)NC(=O)NC1c1cc(Br)cc(Br)c1OCc1cn(-c2ccccc2)nn1` (stereo not drawn) [6ca′, 5-Acetyl-4-(3,5-dibromo-2-((1-phenyl-1H-1,2,3-triazol-4-yl)methoxy)phenyl)-6-methyl-3,4-dihydropyrimidin-2(1H)-one], the melting point fell in the range of 157 to 159 °C. The molecule further showed a half-maximal inhibitory concentration (IC50) in series [1] (setting [4]) of 900 ± 100 nM. The EC50 in series [2] was 4000 ± 200 nM. Besides, the “intracellular calcein retention by fluorescence microscopy” value on hPgp is given as “confirmed intracellular calcein retention”.
Turning to `CC(=O)C1=C(C)NC(=O)NC1c1cc(Br)cc(Br)c1OCc1cn(-c2ccc([N+](=O)[O-])cc2)nn1` (stereo not drawn) [6cc′, 5-Acetyl-4-(3,5-dibromo-2-((1-(4-nitrophenyl)-1H-1,2,3-triazol-4-yl)methoxy)phenyl)-6-methyl-3,4-dihydro-pyrimidin-2(1H)-one], the melting point fell in the range of 165 to 167 °C. Also, inhibition in series [1] (setting [4]) was half-maximal at 1250 ± 80 nM (IC50). In addition, the concentration giving a half-maximal response (EC50) in series [2] was 8900 ± 100 nM.
For the molecule `COc1cc(C2NC(=O)NC(C)=C2C(C)=O)ccc1OCc1cn(-c2ccccc2)nn1` (stereo not drawn) [6da′, 5-Acetyl-4-(3-methoxy-4-((1-phenyl-1H-1,2,3-triazol-4-yl)methoxy)phenyl)-6-methyl-3,4-dihydropyrimidin-2(1H)-one], the melting point is 151 to 153 °C. Besides, in series [1] (setting [3]), the IC50 was determined as 2560 ± 40 nM.
On to `COc1cc(C2NC(=O)NC(C)=C2C(C)=O)ccc1OCc1cn(-c2ccccc2[N+](=O)[O-])nn1` (stereo not drawn) [6db′, 5-Acetyl-4-(3-methoxy-4-((1-(2-nitrophenyl)-1H-1,2,3-triazol-4-yl)methoxy)phenyl)-6-methyl-3,4-dihydropyri-midin-2(1H)-one], for which half-maximal inhibition in series [1] (Caco-2 cell line (Table S3)) (IC50) required 2290 ± 90 nM.
`COc1cc(C2NC(=O)NC(C)=C2C(C)=O)ccc1OCc1cn(-c2ccc([N+](=O)[O-])cc2)nn1` (stereo not drawn) [6dc′, 5-Acetyl-4-(3-methoxy-4-((1-(4-nitrophenyl)-1H-1,2,3-triazol-4-yl)methoxy)phenyl)-6-methyl-3,4-dihydro-pyrimidin-2(1H)-one] showed a melting point of 159 to 161 °C. This molecule gave an IC50 in series [1] (setting [3]) of 2970 ± 30 nM.
As for `N.N.O=C([O-])C1(C(=O)[O-])CCC1.[Pt+2]` [carboplatin, reference compound], the IC50 in series [1] (Caco-2 cell line, MTT assay (Table 1)) was 7000 ± 2000 nM.
For the molecule `COc1cccc2c1C(=O)c1c(O)c3c(c(O)c1C2=O)C[C@@](O)(C(C)=O)C[C@@H]3O[C@H]1C[C@H](N)[C@H](O)[C@H](C)O1` [daunorubicin, reference compound], half-maximal inhibition in series [1] (setting [4]) (IC50) was put at 14000 ± 2000 nM.
Regarding `Nc1ccn([C@@H]2O[C@H](CO)[C@@H](O)C2(F)F)c(=O)n1` [gemcitabine, reference compound], the IC50 in series [1] (setting [3]) turned out to be 4500 ± 980 nM; in series [1] (setting [4]), 5000 ± 1000 nM.
